We go through 29 molecules from patent US8183239B2, “Substituted piperazines and piperidines as modulators of the neuropeptide Y2 receptor” (Janssen Pharmaceutica NV, priority 2005, dated 2012).

The first assay deals with T1, Y2 receptors (Homo sapiens, UniProt P49146).
T1 construct: endogenous in cells; host or cells: KAN-Ts cells (membranes)
T1 sequence (P49146 1-381): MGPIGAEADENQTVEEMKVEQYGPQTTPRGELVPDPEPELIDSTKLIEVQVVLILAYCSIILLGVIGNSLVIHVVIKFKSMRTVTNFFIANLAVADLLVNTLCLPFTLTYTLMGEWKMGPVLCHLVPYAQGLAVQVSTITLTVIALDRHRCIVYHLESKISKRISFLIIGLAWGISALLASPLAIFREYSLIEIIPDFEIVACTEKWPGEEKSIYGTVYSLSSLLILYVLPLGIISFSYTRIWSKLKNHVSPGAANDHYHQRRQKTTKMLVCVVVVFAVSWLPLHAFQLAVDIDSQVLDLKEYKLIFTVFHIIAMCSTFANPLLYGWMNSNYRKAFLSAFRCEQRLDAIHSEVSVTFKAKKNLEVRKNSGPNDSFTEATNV
Briefly: Radioligand binding assay ([125I]PYY, KAN-Ts cell membranes). The settings on record: Table 1, [125I]PYY 80 pM, average of results, read-out: IC50. The method, boiled down:
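Membranes from KAN-Ts cells endogenously expressing Y2 incubated 1 h at rt with 80 pM [^125I]PYY ± test compound in HEPES buffer with NaCl, Ca^2+ and Mg^2+. Bound radioactivity collected by filtration; specific binding defined with […]. IC50 from sigmoidal fit, averaged over 3-8 duplicate experiments.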
For `CCN(CC)C(=O)C(c1ccccc1)N1CCN(c2ccc(NC(=O)C3(C)CCCCC3)cc2F)CC1` (centres unmarked) [Example 136, 1-Methyl-cyclohexanecarboxylic acid {4-[4-(diethylcarbamoyl-phenyl-methyl)-piperazin-1-yl]-3-fluoro-phenyl}-amide], the IC50 stood at 70 nM.

For the molecule `CC[C@H](C)C(=O)Nc1ccc(N2CCN(C(C(=O)N(CC)CC)c3ccccc3)CC2)c(F)c1` (stereo partly drawn) [Example 137, (S)—N-{4-[4-(Diethylcarbamoyl-phenyl-methyl)-piperazin-1-yl]-3-fluoro-phenyl}-2-methyl-butyramide], the IC50 turned out to be 70 nM.

Regarding `CCC(CC)C(=O)Nc1ccc(N2CCC(=C(C(=O)N(CC)CC)c3cccc(F)c3)CC2)c(F)c1` [Example 138, N-(4-{4-[Diethylcarbamoyl-(3-fluoro-phenyl)-methylene]-piperidin-1-yl}-3-fluoro-phenyl)-2-ethyl-butyramide], the IC50 stood at 70 nM.

`CCN(CC)C(=O)C(c1ccccc1)N1CCN(c2ccc(NC(=O)C(C)(C)c3ccc(Cl)cc3)cc2F)CC1` (centres unmarked) [Example 139, 2-(4-Chloro-phenyl)-N-{4-[4-(diethylcarbamoyl-phenyl-methyl)-piperazin-1-yl]-3-fluoro-phenyl}-isobutyramide]: the IC50 is 72 nM.

For the molecule `CCN(CC)C(=O)C(c1ccccc1)C1CCN(c2ccc(NC(=O)C(C)C)cc2F)CC1` (centres unmarked) [Example 140, N-{4-[4-(Diethylcarbamoyl-phenyl-methyl)-piperidin-1-yl]-3-fluoro-phenyl}-isobutyramide], the IC50 was 80 nM.

Turning to `CCN(CC)C(=O)C(c1ccccc1)C1CCN(c2ccc(NC(=O)c3cccnc3SC)cc2F)CC1` (centres unmarked) [Example 141, N-{4-[4-(Diethylcarbamoyl-phenyl-methyl)-piperidin-1-yl]-3-fluoro-phenyl}-2-methylsulfanyl-nicotinamide], the 50% inhibitory concentration (IC50) worked out at 80 nM.

As to `CCNC(=O)C(c1ccccc1)C1CCN(c2c(F)cc(NC(=O)C(CC)CC)cc2F)CC1` (centres unmarked) [Example 142, 2-Ethyl-N-{4-[4-(ethylcarbamoyl-phenyl-methyl)-piperidin-1-yl]-3,5-difluoro-phenyl}-butyramide], the IC50 came to 75 nM.

Regarding `CCN(CC)C(=O)C(c1ccccc1)N1CCN(c2ccc(NC(=O)C3CCCC3)cc2F)CC1` (centres unmarked) [Example 143, Cyclopentanecarboxylic acid {4-[4-(diethylcarbamoyl-phenyl-methyl)-piperazin-1-yl]-3-fluoro-phenyl}-amide], the 50% inhibitory concentration (IC50) amounted to 80 nM.

For the molecule `CCN(CC)C(=O)C(c1ccccc1)C1CCN(c2ccc(NC(=O)c3ccsc3C)cc2F)CC1` (centres unmarked) [Example 144, 2-Methyl-thiophene-3-carboxylic acid {4-[4-(diethylcarbamoyl-phenyl-methyl)-piperidin-1-yl]-3-fluoro-phenyl}-amide], the IC50 was determined as 100 nM.

Regarding `CCN(CC)C(=O)C(c1ccccc1)C1CCN(c2ccc(NC(=O)c3cccn3C)cc2F)CC1` (centres unmarked) [Example 145, 1-Methyl-1H-pyrrole-2-carboxylic acid {4-[4-(diethylcarbamoyl-phenyl-methyl)-piperidin-1-yl]-3-fluoro-phenyl}-amide], the IC50 was 100 nM.

As for `CCC(CC)C(=O)Nc1ccc(N2CCN(C(C(=O)OC)c3cc(F)cc(F)c3)CC2)c(F)c1` (centres unmarked) [Example 146, (3,5-Difluoro-phenyl)-{4-[4-(2-ethyl-butyrylamino)-2-fluoro-phenyl]-piperazin-1-yl}-acetic acid methyl ester], the IC50 amounted to 115 nM.

For `CCNC(=O)C(c1ccccc1)C1CCN(c2ccc(NC(=O)C3(C)CCCCC3)cc2C#N)CC1` (centres unmarked) [Example 147, 1-Methyl-cyclohexanecarboxylic acid {3-cyano-4-[4-(ethylcarbamoyl-phenyl-methyl)-piperidin-1-yl]-phenyl}-amide], the IC50 was determined as 100 nM.

On to `CCNC(=O)C(c1ccccc1)C1CCN(c2ccc(NC(=O)[C@@H]3CCOC3)cc2C#N)CC1` (stereo partly drawn) [Example 148, (R)-Tetrahydro-furan-3-carboxylic acid {3-cyano-4-[4-(ethylcarbamoyl-phenyl-methyl)-piperidin-1-yl]-phenyl}-amide], for which the IC50 turned out to be 120 nM.

In the case of `CCN(CC)C(=O)C(c1ccccc1)C1CCN(c2ccc(NC(=O)c3ccccc3SC)cc2F)CC1` (centres unmarked) [Example 149, N-{4-[4-(Diethylcarbamoyl-phenyl-methyl)-piperidin-1-yl]-3-fluoro-phenyl}-2-methylsulfanyl-benzamide], the IC50 is 110 nM.

Turning to `O=C(Nc1ccc(N2CCN(C(C(=O)N3CCC(F)(F)C3)c3ccccc3)CC2)c(F)c1)[C@H]1CCOC1` (stereo partly drawn) [Example 151, (S)-Tetrahydro-furan-3-carboxylic acid (4-{4-[2-(3,3-difluoro-pyrrolidin-1-yl)-2-oxo-1-phenyl-ethyl]-piperazin-1-yl}-3-fluoro-phenyl)-amide], the IC50 was 140 nM.

In the case of `CCN(CC)C(=O)C(c1ccccc1)N1CCN(c2ccc(NC(=O)C3C(C)(C)C3(C)C)cc2F)CC1` (centres unmarked) [Example 152, 2,2,3,3-Tetramethyl-cyclopropanecarboxylic acid {4-[4-(diethylcarbamoyl-phenyl-methyl)-piperazin-1-yl]-3-fluoro-phenyl}-amide], the IC50 stood at 170 nM.

Turning to `CCC(CC)C(=O)Nc1ccc(N2CCN(C(C(=O)N(CC)CC)c3cc(F)ccc3Br)CC2)c(F)c1` (centres unmarked) [Example 153, N-(4-{4-[(2-Bromo-5-fluoro-phenyl)-diethylcarbamoyl-methyl]-piperazin-1-yl}-3-fluoro-phenyl)-2-ethyl-butyramide], the IC50 worked out at 142 nM.

Regarding `CCN(CC)C(=O)C(c1ccccc1)C1CCN(c2ccc(NC(=O)Cc3cc(C)ccc3C)cc2F)CC1` (centres unmarked) [Example 154, 2-(1-{4-[2-(2,5-Dimethyl-phenyl)-acetylamino]-2-fluoro-phenyl}-piperidin-4-yl)-N,N-diethyl-2-phenyl-acetamide], the IC50 came out at 220 nM.

Consider `CCC(CC)C(=O)Nc1ccc(N2CCN(C(C(=O)N(CC)CC)c3ccc(F)cc3)CC2)c(F)c1` (centres unmarked) [Example 155, N-(4-{4-[Diethylcarbamoyl-(4-fluoro-phenyl)-methyl]-piperazin-1-yl}-3-fluoro-phenyl)-2-ethyl-butyramide], for which the IC50 worked out at 200 nM.

Consider `CCN(CC)C(=O)C(c1ccccc1)C1CCN(c2ccc(NC(=O)Cc3c(F)cccc3F)cc2F)CC1` (centres unmarked) [Example 156, 2-(1-{4-[2-(2,6-Difluoro-phenyl)-acetylamino]-2-fluoro-phenyl}-piperidin-4-yl)-N,N-diethyl-2-phenyl-acetamide], for which the IC50 turned out to be 230 nM.

Consider `CCN(CC)C(=O)C(c1ccccc1)C1CCN(c2ccc(NC(=O)c3cc(C)ccc3C)cc2F)CC1` (centres unmarked) [Example 157, N-{4-[4-(Diethylcarbamoyl-phenyl-methyl)-piperidin-1-yl]-3-fluoro-phenyl}-2,5-dimethyl-benzamide], for which the 50% inhibitory concentration (IC50) came out at 235 nM.

For the molecule `CCC(CC)C(=O)Nc1ccc(N2CCN(C(C(=O)N3CCC(F)(F)CC3)c3ccc(F)cc3)CC2)c(F)c1` (centres unmarked) [Example 158, N-(4-{4-[2-(4,4-Difluoro-piperidin-1-yl)-1-(4-fluoro-phenyl)-2-oxo-ethyl]-piperazin-1-yl}-3-fluoro-phenyl)-2-ethyl-butyramide], the IC50 was 240 nM.

Consider `CCNC(=O)C(c1cccc(F)c1)N1CCN(c2ccc(NC(=O)C(CC)CC)cc2F)CC1` (centres unmarked) [Example 159, 2-Ethyl-N-(4-{4-[ethylcarbamoyl-(3-fluoro-phenyl)-methyl]-piperazin-1-yl}-3-fluoro-phenyl)-butyramide], for which the IC50 came to 250 nM.

With `CCN(CC)C(=O)C(c1ccccc1)C1CCN(c2ccc(NC(=O)c3ccccc3N)cc2F)CC1` (centres unmarked) [Example 160, 2-Amino-N-{4-[4-(diethylcarbamoyl-phenyl-methyl)-piperidin-1-yl]-3-fluoro-phenyl}-benzamide], the IC50 came out at 260 nM.

As to `CCN(CC)C(=O)C(c1ccccc1)N1CCN(c2ccc(NC(=O)CC3CC3)cc2F)CC1` (centres unmarked) [Example 161, 2-{4-[4-(2-Cyclopropyl-acetylamino)-2-fluoro-phenyl]-piperazin-1-yl}-N,N-diethyl-2-phenyl-acetamide], the 50% inhibitory concentration (IC50) stood at 300 nM.

For the molecule `CCN(CC)C(=O)C(c1ccccc1)N1CCN(c2ccc(NC(=O)Cc3ccccc3OC)cc2F)CC1` (centres unmarked) [Example 162, N,N-Diethyl-2-(4-{2-fluoro-4-[2-(2-methoxy-phenyl)-acetylamino]-phenyl}-piperazin-1-yl)-2-phenyl-acetamide], the IC50 worked out at 300 nM.

For `CCN(CC)C(=O)C(c1ccccc1)C1CCN(c2ccc(NC(=O)c3cnoc3C)cc2F)CC1` (centres unmarked) [Example 163, 5-Methyl-isoxazole-4-carboxylic acid {4-[4-(diethylcarbamoyl-phenyl-methyl)-piperidin-1-yl]-3-fluoro-phenyl}-amide], the IC50 was found to be 300 nM.

Staying with this assay, now noted: Table 2, [125I]PYY 80 pM, average of results, read-out: IC50.
Take `CCCS(=O)(=O)Nc1ccc(N2CCN(C(C(=O)N(CC)CC)c3ccccc3)CC2)c(F)c1` (centres unmarked) [Example 165, N,N-Diethyl-2-{4-[2-fluoro-4-(propane-1-sulfonylamino)-phenyl]-piperazin-1-yl}-2-phenyl-acetamide]: the IC50 was 1100 nM.

Turning to `CCCS(=O)(=O)N(c1ccc(N2CCN(C(C(=O)N(CC)CC)c3ccccc3)CC2)c(F)c1)S(=O)(=O)CCC` (centres unmarked) [Example 166, N-{4-[4-(Diethylcarbamoyl-phenyl-methyl)-piperazin-1-yl]-3-fluoro-phenyl}-N-dipropanesulfonanilide], the IC50 amounted to 560 nM.
